SMILES strings stand for the structures.

The assay has as its target T1, ITK (Homo sapiens, UniProt Q08881).
T1 construct: purchased Invitrogen PV3875
T1 sequence (Q08881 1-620): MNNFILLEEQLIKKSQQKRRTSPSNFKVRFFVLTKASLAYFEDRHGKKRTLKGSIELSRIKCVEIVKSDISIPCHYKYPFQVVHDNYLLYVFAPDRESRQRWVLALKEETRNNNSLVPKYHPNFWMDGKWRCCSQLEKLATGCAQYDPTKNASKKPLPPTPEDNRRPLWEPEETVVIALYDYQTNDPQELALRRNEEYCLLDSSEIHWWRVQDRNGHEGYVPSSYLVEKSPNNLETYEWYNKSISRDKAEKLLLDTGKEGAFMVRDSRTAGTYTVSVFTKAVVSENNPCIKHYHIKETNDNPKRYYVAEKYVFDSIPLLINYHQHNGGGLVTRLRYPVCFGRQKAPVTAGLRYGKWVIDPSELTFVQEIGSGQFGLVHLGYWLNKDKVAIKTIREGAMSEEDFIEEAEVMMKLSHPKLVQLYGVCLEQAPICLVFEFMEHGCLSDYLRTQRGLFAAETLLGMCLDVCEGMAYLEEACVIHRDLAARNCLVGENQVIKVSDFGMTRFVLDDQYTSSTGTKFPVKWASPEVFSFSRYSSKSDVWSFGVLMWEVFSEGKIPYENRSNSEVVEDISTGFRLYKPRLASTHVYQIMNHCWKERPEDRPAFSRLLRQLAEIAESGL
Briefly: ITK enzyme assay (Caliper or LCMS peptide phosphorylation). It is filed as biochemical. Particulars: purified ITK (Invitrogen PV3875), 20 μM ATP, Ki by Morrison's quadratic equation. In short, it runs like this: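 Ki values come from Morrison quadratic fits of activity versus inhibitor concentration, adjusted for ATP-competitive inhibition against ATP/Km,app. Substrate and phosphopeptide from purified ITK reactions were resolved either microfluidically (Caliper, EDTA stop) or by LC-MS MRM (TCA stop).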
Usually Ki stands for the dissociation constant of the complex between target and ligand, obtained from inhibition or displacement. Lower therefore signals higher affinity. Take `CN(C)CC(c1ccccc1)n1cc(NC(=O)c2n[nH]c3c2CC(C)(C)C3)cn1` (single isomer, unassigned) [Example 96a, N-(1-(2-(dimethylamino)-1-phenylethyl)-1H-pyrazol-4-yl)-5,5-dimethyl-1,4,5,6-tetrahydrocyclopenta[c]pyrazole-3-carboxamide]: the Ki was 57 nM.

The compound `CN(C)CC(c1ccccc1)n1cc(NC(=O)c2n[nH]c3c2CC(C)(C)C3)cn1` (single isomer, unassigned) [Example 96b, N-(1-(2-(dimethylamino)-1-phenylethyl)-1H-pyrazol-4-yl)-5,5-dimethyl-1,4,5,6-tetrahydrocyclopenta[c]pyrazole-3-carboxamide] showed an inhibitory constant (Ki) of 2 nM. Against the preceding compound, the Ki is about 28-fold lower.

Compound `CC1(C)Cc2[nH]nc(C(=O)Nc3cnn(C(CS(C)(=O)=O)c4cccnc4)c3)c2C1` (single isomer, unassigned) [Example 97a, 5,5-dimethyl-N-(1-(2-(methylsulfonyl)-1-(pyridin-3-yl)ethyl)-1H-pyrazol-4-yl)-1,4,5,6-tetrahydrocyclopenta[c]pyrazole-3-carboxamide] yielded an inhibition constant (Ki) of 2 nM.

For the compound `CC1(C)Cc2[nH]nc(C(=O)Nc3cnn(C(CS(C)(=O)=O)c4cccnc4)c3)c2C1` (single isomer, unassigned) [Example 97b, 5,5-dimethyl-N-(1-(2-(methylsulfonyl)-1-(pyridin-3-yl)ethyl)-1H-pyrazol-4-yl)-1,4,5,6-tetrahydrocyclopenta[c]pyrazole-3-carboxamide], the inhibitory constant (Ki) came out at 6 nM.

In turn, `CC(c1cncs1)n1cc(NC(=O)c2n[nH]c3c2CCC(C)(C)C3)cn1` (single isomer, unassigned) [Example 98a, 6,6-dimethyl-N-(1-(1-(thiazol-5-yl)ethyl)-1H-pyrazol-4-yl)-4,5,6,7-tetrahydro-1H-indazole-3-carboxamide] displayed an inhibition constant Ki of 8 nM.

In the case of `CC(c1cncs1)n1cc(NC(=O)c2n[nH]c3c2CCC(C)(C)C3)cn1` (single isomer, unassigned) [Example 98b, 6,6-dimethyl-N-(1-(1-(thiazol-5-yl)ethyl)-1H-pyrazol-4-yl)-4,5,6,7-tetrahydro-1H-indazole-3-carboxamide], the Ki was 2 nM. This Ki is about 4-fold lower than that of the compound before.

As for `CCC(c1cnn(CC)c1)n1cc(NC(=O)c2n[nH]c3c2CCC(C)(C)C3)cn1` (single isomer, unassigned) [Example 99a, N-(1-(1-(1-ethyl-1H-pyrazol-4-yl)propyl)-1H-pyrazol-4-yl)-6,6-dimethyl-4,5,6,7-tetrahydro-1H-indazole-3-carboxamide], the inhibition constant Ki worked out at 4 nM.

In turn, `CCC(c1cnn(CC)c1)n1cc(NC(=O)c2n[nH]c3c2CCC(C)(C)C3)cn1` (single isomer, unassigned) [Example 99b, N-(1-(1-(1-ethyl-1H-pyrazol-4-yl)propyl)-1H-pyrazol-4-yl)-6,6-dimethyl-4,5,6,7-tetrahydro-1H-indazole-3-carboxamide] returned a Ki of 4 nM. This counts as single-digit nanomolar.

`CCn1cc(C(C)n2cc(NC(=O)c3n[nH]c4c3CCC(C)(C)C4)cn2)cn1` (single isomer, unassigned) [Example 100a, N-(1-(1-(1-ethyl-1H-pyrazol-4-yl)ethyl)-1H-pyrazol-4-yl)-6,6-dimethyl-4,5,6,7-tetrahydro-1H-indazole-3-carboxamide] returned a Ki of 17 nM.

On to `CCn1cc(C(C)n2cc(NC(=O)c3n[nH]c4c3CCC(C)(C)C4)cn2)cn1` (single isomer, unassigned) [Example 100b, N-(1-(1-(1-ethyl-1H-pyrazol-4-yl)ethyl)-1H-pyrazol-4-yl)-6,6-dimethyl-4,5,6,7-tetrahydro-1H-indazole-3-carboxamide], for which the Ki is 7 nM.

In turn, `Cc1nnc(C(C)n2cc(NC(=O)c3n[nH]c4c3CCC(C)(C)C4)cn2)o1` (single isomer, unassigned) [Example 101a, 6,6-dimethyl-N-(1-(1-(5-methyl-1,3,4-oxadiazol-2-yl)ethyl)-1H-pyrazol-4-yl)-4,5,6,7-tetrahydro-1H-indazole-3-carboxamide] displayed a Ki of 41 nM.

Source of the values: patent US20160326142A1, “PYRAZOLE CARBOXAMIDE COMPOUNDS, COMPOSITIONS AND METHODS OF USE” (Genentech, Inc., priority 2012, published 2016).
